Reference: article PMC9886283, “Specific gene module pair-based target identification and drug discovery” (Frontiers in Pharmacology, 2023)
Counter-ions that a name gives are not always drawn. Like-named read-outs stand apart in the source and are kept apart here.

Experiments:
[1] = target: PI3Kδ (Homo sapiens, UniProt O00329); test: PI3Kδ kinase assay (ADP-Glo-based biochemical assay)
Protocol: (§1) This study aims to determine the effect of test compounds on PI3Kα/β/δ enzyme activity using ADP-Glo-based biochemical assay (Vendor: Promega, Cat#: V9102), following the manufacturer’s instruction. […] Then, the IC50s were calculated by fitting % inhibition values and the log of compound concentrations to the hill slope with the variable slope (called the variable slope model or four-parameter dose-response curve), and the log (inhibitor) vs. response curve was built by GraphPad Prism version 7.0 (GraphPad Software). Data are presented as mean ± SEM, with n = 3 for each drug dose.

[2] = target: PI3Kα (Homo sapiens, UniProt P42336); test: PI3Kα kinase assay (ADP-Glo-based biochemical assay)
Protocol: as §1

[3] = target: PI3Kβ (Homo sapiens, UniProt P42338); test: PI3Kβ kinase assay (ADP-Glo-based biochemical assay); conditions: n = 3 per dose
Protocol: as §1

[4] = tested on: N-methyl-D-aspartic acid (NMDA) receptor; conditions: uncompetitive, low-affinity, non-selective antagonist; ref Lipton, 2007; cited from earlier work
[5] = ADP-Glo, n = 3 per dose, read-out: IC50 PI3Kδ
[6] = ADP-Glo, n = 3 per dose, read-out: IC50 PI3Kα

Sequence of PI3Kδ (O00329 whole entry): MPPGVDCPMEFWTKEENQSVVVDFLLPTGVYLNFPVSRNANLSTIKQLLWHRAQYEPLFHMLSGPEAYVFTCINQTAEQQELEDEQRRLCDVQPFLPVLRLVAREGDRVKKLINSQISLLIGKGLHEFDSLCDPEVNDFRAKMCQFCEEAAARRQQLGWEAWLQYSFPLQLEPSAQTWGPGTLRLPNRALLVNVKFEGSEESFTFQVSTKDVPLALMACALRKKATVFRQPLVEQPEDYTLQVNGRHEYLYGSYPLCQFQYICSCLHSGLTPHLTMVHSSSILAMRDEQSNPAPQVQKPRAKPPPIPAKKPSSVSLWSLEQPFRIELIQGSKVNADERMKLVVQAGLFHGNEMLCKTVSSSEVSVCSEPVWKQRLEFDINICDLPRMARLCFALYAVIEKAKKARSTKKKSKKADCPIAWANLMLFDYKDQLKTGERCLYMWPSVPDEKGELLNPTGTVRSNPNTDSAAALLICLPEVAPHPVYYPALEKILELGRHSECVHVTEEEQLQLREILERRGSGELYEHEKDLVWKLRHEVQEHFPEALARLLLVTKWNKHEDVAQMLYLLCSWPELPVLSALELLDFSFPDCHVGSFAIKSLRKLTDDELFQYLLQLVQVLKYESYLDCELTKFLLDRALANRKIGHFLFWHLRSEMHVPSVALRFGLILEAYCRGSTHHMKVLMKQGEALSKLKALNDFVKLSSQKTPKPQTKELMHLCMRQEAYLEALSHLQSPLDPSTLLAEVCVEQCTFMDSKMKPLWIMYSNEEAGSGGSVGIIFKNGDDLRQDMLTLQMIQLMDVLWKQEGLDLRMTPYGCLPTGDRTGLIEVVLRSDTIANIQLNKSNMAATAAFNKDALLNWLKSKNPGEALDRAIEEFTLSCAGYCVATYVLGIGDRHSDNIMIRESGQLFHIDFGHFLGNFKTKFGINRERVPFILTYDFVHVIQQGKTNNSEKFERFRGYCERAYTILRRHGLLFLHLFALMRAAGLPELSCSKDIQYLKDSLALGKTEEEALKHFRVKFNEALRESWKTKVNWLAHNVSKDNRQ
Sequence of PI3Kδ (P27986 whole entry partner): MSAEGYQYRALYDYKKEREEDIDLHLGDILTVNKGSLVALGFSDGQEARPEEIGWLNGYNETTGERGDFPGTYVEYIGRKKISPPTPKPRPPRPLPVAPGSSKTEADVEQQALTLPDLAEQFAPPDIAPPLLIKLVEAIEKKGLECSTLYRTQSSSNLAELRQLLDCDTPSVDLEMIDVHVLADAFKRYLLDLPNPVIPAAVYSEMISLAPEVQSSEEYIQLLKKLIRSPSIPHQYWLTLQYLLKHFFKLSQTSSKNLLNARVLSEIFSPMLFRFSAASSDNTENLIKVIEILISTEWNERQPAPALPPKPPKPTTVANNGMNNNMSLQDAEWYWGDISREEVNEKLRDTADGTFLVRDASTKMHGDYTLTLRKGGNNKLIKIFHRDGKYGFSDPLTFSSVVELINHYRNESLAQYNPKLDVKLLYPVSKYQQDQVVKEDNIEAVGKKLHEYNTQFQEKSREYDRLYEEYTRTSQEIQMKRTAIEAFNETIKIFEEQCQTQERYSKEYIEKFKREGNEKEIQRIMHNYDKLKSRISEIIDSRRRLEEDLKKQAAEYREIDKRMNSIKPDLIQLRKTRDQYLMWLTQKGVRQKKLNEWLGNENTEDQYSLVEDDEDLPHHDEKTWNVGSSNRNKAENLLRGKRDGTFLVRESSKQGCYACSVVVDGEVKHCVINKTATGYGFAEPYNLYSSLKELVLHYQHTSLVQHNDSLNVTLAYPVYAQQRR
Sequence of PI3Kα (P42336 whole entry): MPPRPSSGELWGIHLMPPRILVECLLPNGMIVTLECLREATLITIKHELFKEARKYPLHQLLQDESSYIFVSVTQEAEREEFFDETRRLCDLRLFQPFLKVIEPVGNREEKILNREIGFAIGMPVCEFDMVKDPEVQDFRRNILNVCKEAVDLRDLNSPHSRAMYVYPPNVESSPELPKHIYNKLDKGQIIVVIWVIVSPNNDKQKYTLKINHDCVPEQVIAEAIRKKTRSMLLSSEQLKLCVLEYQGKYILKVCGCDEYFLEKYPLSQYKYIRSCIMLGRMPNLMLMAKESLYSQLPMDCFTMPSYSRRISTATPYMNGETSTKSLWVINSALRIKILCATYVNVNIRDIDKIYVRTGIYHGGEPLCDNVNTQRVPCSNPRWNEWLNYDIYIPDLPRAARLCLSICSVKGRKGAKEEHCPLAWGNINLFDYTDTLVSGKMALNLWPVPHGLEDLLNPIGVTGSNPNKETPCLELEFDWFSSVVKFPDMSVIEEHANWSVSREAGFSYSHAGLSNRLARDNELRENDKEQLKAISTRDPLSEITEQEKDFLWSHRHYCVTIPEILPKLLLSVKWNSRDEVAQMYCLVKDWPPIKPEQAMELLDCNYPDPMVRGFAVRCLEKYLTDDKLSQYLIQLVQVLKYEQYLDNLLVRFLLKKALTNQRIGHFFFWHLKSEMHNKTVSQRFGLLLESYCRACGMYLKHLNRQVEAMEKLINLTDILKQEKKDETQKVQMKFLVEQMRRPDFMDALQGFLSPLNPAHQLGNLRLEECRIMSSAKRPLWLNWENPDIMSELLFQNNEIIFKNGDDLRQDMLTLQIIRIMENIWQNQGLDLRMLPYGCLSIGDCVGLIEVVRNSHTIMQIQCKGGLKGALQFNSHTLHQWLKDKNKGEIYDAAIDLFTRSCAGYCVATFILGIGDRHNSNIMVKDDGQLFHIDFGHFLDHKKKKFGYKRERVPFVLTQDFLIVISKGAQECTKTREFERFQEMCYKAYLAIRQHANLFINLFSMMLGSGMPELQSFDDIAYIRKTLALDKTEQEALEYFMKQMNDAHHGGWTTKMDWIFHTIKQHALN
Sequence of PI3Kα (P27986 whole entry partner): as the sequence (P27986 whole entry partner) above
Sequence of PI3Kβ (P42338 whole entry): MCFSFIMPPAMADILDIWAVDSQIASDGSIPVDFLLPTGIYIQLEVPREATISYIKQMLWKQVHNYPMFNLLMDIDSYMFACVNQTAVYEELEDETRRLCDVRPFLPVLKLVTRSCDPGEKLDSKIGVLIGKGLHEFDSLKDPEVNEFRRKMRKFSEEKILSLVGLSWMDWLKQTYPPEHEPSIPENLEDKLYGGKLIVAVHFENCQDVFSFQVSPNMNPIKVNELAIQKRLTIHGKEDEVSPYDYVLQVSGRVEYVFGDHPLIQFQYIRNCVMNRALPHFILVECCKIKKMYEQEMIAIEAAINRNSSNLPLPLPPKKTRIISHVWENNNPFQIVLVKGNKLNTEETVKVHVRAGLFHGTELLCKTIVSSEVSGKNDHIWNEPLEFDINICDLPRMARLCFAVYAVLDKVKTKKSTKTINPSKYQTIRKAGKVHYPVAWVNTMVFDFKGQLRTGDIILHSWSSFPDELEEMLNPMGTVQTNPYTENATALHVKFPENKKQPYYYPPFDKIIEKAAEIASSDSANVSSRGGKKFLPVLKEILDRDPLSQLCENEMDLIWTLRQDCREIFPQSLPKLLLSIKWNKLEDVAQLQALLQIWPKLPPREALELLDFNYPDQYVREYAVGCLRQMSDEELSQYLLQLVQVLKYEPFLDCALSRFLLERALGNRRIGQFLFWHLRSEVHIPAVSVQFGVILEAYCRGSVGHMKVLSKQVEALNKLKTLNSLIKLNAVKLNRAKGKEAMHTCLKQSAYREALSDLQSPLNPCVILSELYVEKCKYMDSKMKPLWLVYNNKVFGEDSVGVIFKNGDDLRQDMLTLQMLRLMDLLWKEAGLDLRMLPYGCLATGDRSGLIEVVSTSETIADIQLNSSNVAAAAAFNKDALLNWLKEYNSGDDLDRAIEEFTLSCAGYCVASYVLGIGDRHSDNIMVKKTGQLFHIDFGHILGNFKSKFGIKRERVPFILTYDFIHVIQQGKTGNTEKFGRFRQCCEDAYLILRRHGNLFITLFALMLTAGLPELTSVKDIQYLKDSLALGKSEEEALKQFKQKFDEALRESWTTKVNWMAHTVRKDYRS
Sequence of PI3Kβ (P27986 whole entry partner): as the sequence (P27986 whole entry partner) above

SMILES | IC50 [1, 5] [µM] | IC50 [2, 6] [µM] | IC50 [3] [µM] | affinity for NMDA receptor [4] | IC50 [2] [µM] | IC50 [1] [µM]
CC(C)NCCCn1c(Sc2cc3c(cc2I)OCO3)nc2c(N)ncnc21 [PU-H71] | 20 | – | – | – | – | –
COc1ccc(CCN2CCC(Nc3nc4ccccc4n3Cc3ccc(F)cc3)CC2)cc1 [astemizole] | 6 | 18 | 8.7 | – | – | –
CC/C(=C(\c1ccccc1)c1ccc(OCCN(C)C)cc1)c1ccccc1 [Tamoxifen, tamoxifen] | 10 | 19 | 14 | – | – | –
CC12CC3CC(C)(C1)CC(N)(C3)C2 [memantine] | – | – | – | micromolar range | – | –
c1nc2nc(Nc3ccc(N4CCOCC4)cc3)nc(NC3CCCCC3)c2[nH]1 [reversine] | – | – | – | – | 12 | 3.5
O=C(c1ccc(OCCN2CCCCC2)cc1)c1c(-c2ccc(O)cc2)sc2cc(O)ccc12 [Raloxifene HCl, raloxifene HCl] | 4.3 | 16 | 8.4 | – | – | –
CO[C@H]1/C=C\C=C(/C)C(=O)NC2=CC(=O)C(NCCN(C)C)=C(C[C@@H](C)C[C@H](OC)[C@H](O)[C@@H](C)/C=C(\C)[C@@H]1OC(N)=O)C2=O [alvespimycin] | 28 | 93 | 69 | – | – | –
